US12006542B2, “Force-modulated hybridization for visualizing nucleic acid length and function” (University of Houston System, priority 2017, dated 2024)

How the values were obtained:
[1] = relative to doxorubicin; cited from earlier work
[2] = test system: segment of the DNA duplex specified by DpnII; test: Dissociation force of drug-DNA binding, segment chosen by DpnII; conditions: for order of binding strength (dissociation force): DNA segment chosen by addition of DpnII, FIG. 5C red section
Source text: (§6) The dissociation force can be further used to quantitatively distinguish the binding strength of different drug molecules at each and every specific nucleotide sequence. […] This segment is specifically chosen because of the addition of enzyme DpnII.

[3] = test system: DNA duplex, EcoRI binding site; test: Multiplexed sample wells, ultrasound force through a piezo plate, EcoRI; conditions: 100 μM drug, lane 4
Description: (§1) A shown in FIG. 7A, a new system was designed consisting of a puncher, an incubator, and a displayer. After incubating the sample, the puncher will be used to break the bottom of the incubator so the sample will be transferred to the corresponding wells on the displayer. The bottom of the displayer was functionalized, for example with streptavidin, so that magnetic particles will be able to be immobilized through a labeled DNA duplex, for example with biotin. A mechanical force is then applied on the displayer followed by final inspection and measurement.
(§2) The samples within each lane were under identical conditions. 1: DNA duplex with 100 μM daunorubicin and DpnII; 2: DNA duplex with 100 μM netropsin and DpnII; 3: DNA duplex; 4: DNA duplex incubated with 100 μM daunomycin and EcoRI; 5: DNA duplex with 100 μM netropsin and ECoRI. After applying ultrasound through a piezo plate, only the particles in lanes 2 and […] were removed, indicating weak binding between netropsin and CTAG (lane 2), and between daunomycin and the EcoRI binding site (lane 4).

DNA = test: Laser transmission quantification of immobilized particles at different drug concentrations; type: binding; conditions: fitting of transmission profile vs drug concentration
Source text: The detection was achieved by using a photodetector (DET100A, Thorlabs) coupled with a voltmeter. […] Fitting of the profile yielded a binding constant of 9±2×10^4 M^−1, consistent with the results using a sensitive atomic magnetometer.

[4] = test system: DNA duplex, enzyme-binding segment for DpnII; test: Force-modulated drug-DNA binding determination with DNA-cleaving enzyme DpnII (visual particle immobilization); conditions: DpnII present; after ~1 pN force
Source text: (§3) To determine the exact binding site of drugs on nucleic acids, a derived scheme contains a magnetically labeled DNA and its complementary strand, in the presence of the drug to be analyzed and a DNA-cleaving enzyme. The binding site of the drug can be precisely determined by force modulation following surface immobilization.
(§4) FIG. 1D can be utilized to illustrate a system 100 for measuring drug-DNA binding. A magnetically labeled DNA strand 102 is hybridized with its complementary strand 104, in the presence of a drug molecule 106 and a DNA-cleaving enzyme 107. If the drug binds with the DNA specifically at the location of the enzyme, the enzyme will not be able to cleave the duplex. Consequently, the magnetic particles will be able to be immobilized on the surface via the biotin 105 on complementary strand 104, showing yellowish color in image 108(a) and being assigned as “1”. […] Thus, the magnetic particles will not be able to bind with the surface because of the absence of a functional group (such as biotin 105 shown in FIG. 1D) to interact with the matching functional group on the surface, showing as clear and being assigned as “0” in image 108(b).
(§5) The derived scheme presented in FIG. 1D was used to precisely determine the binding sites of drug molecules. […]

[5] = test system: DNA duplex, enzyme-binding segment for EcoRI; test: Force-modulated drug-DNA binding determination with DNA-cleaving enzyme EcoRI (visual particle immobilization); conditions: EcoRI present; after ~1 pN force
Source text: as §3, §4, §5

DNA duplex, CTAG (DpnII) = test: Multiplexed sample wells, ultrasound force through a piezo plate, DpnII; type: binding; conditions: 100 μM drug, lane 2
Description: as §1, §2

[6] = test system: segment of the DNA duplex specified by EcoRI; test: Dissociation force of drug-DNA binding, segment specified by EcoRI; conditions: FIG. 5C blue section
Source text: as §6

Row | Compound | toxicity in chemotherapy [1] | order of binding strength (dissociation force) [2] | sequence selectivity of DNA binding ([2]; comparison of DpnII and EcoRI segments) | binding with the EcoRI binding site after ultrasound [3] | binding constant (DNA) | blocking of DpnII binding site on DNA duplex (particle immobilization) [4] | blocking of EcoRI on DNA duplex (particle immobilization) [5] | binding with CTAG after ultrasound (DNA duplex, CTAG (DpnII)) | rank of binding strength (dissociation force) [6]
1 | COc1cccc2c1C(=O)c1c(O)c3c(c(O)c1C2=O)C[C@@](O)(C(=O)CO)C[C@@H]3O[C@H]1C[C@H](N)[C@@H](O)[C@H](C)O1 [epirubicin] | less toxic | daunomycin, doxorubicin > epirubicin >> daunomycin >> netropsin | more sequence-selective than doxorubicin |  |  |  |  |  | 
2 | COc1cccc2c1C(=O)c1c(O)c3c(c(O)c1C2=O)C[C@@](O)(C(C)=O)C[C@@H]3O[C@H]1C[C@H](N)[C@H](O)[C@H](C)O1 [daunomycin] |  | daunomycin, doxorubicin > epirubicin >> daunomycin >> netropsin |  | weak binding | 9±2×10^4 M^−1 | blocked the binding site of DpnII | could not |  | 
3 | COc1cccc2c1C(=O)c1c(O)c3c(c(O)c1C2=O)C[C@@](O)(C(=O)CO)C[C@@H]3O[C@H]1C[C@H](N)[C@H](O)[C@H](C)O1 [doxorubicin] |  | daunomycin, doxorubicin > epirubicin >> daunomycin >> netropsin |  |  |  |  |  |  | 
4 | Cn1cc(NC(=O)c2cc(NC(=O)CN=C(N)N)cn2C)cc1C(=O)NCCC(=N)N [netropsin] |  | daunomycin, doxorubicin > epirubicin >> daunomycin >> netropsin |  |  |  | does not interfere with the binding of DpnII | able to block EcoRI | weak binding | second strongest
